16 molecules from PubChem BioAssay (NCI) can be followed below.

Common to all, as to assay: NCI tumour cell line growth inhibition, 48 h
Test [1] concerns 786-0 renal.
Test [2] has as its system CAKI-1 renal.
Test [3] deals with HOP-92 NSCLC.
The subject of test [4] is MDA-N.
For test [5], the system named is OVCAR-3 ovarian.
Test [6] has as its system SF-268 CNS.
Test [7] relates to SK-OV-3 ovarian.
For test [8], the system named is SNB-75 CNS.
Test [9] concerns TK-10 renal.
Test [10] concerns DMS 114 small cell lung.

Structures are written as SMILES.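 Briefly, cells in 96-well plates were exposed to five compound concentrations for 48 h, and endpoints were estimated by linear interpolation. TGI marks complete inhibition of growth.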

With `O=C1c2ccccc2C(=O)N1c1ccc(Cc2ccc(N3C(=O)c4ccccc4C3=O)cc2)cc1`, the TGI in test [1], in test [2], in test [3], in [4], in test [5] and in [6] was more than 100 µM throughout. Moreover, the TGI in test [7], in test [8] and in test [9] was more than 100 µM throughout.

In the case of `O=S(=O)(F)Cc1ccccc1`, the TGI in test [1], in test [2], in test [3], in test [4], in test [5] and in test [6] was more than 100 µM each time. Further, the TGI in [7], in test [8] and in [9] was more than 100 µM in each case.

Consider `COC1CCCc2c(OC(C)=O)ccc(OC(C)=O)c21` (centres undefined), for which the TGI was more than 100 µM in test [1]; more than 100 µM in test [2]; more than 100 µM in test [10]; 34.1 µM in test [3]; more than 100 µM in [5]; more than 100 µM in test [6]. Besides, the TGI in test [7], in test [8] and in [9] was more than 100 µM each time.

As to `Cn1cc(-c2ccc3c4ccccc4n(C)c3c2)c2ccccc21`, the TGI in test [1], in test [2], in test [10], in test [5], in test [6] and in test [7] was more than 100 µM throughout. Besides, the TGI in [8] and in [9] was more than 100 µM each time.

With `O=C(Nc1cc(Cl)c(I)c(Cl)c1)C(F)(F)F`, the TGI in test [1] is 74.4 µM; in test [2] it was 56.5 µM; in test [3], 46.9 µM; in [4], more than 100 µM; in test [5], 81.2 µM; in [6], more than 100 µM. The TGI in test [7] was 58.9 µM; in [8] it was more than 100 µM.

As to `O=C(n1c2ccccc2c2n[nH]c(=S)nc21)C(F)(F)F`, the TGI in [1], in test [2], in test [10], in test [3], in [5] and in test [6] was more than 100 µM each time. Also, the TGI in test [7], in test [8] and in test [9] was more than 100 µM throughout.

Take `CC(C)(C)C1=CC(=N/N=c2\scc(-c3ccccc3)n2Cc2ccccc2)C=C(C(C)(C)C)C1=O`: the TGI in [1], in test [2], in test [10], in test [5], in [6] and in test [8] was more than 100 µM each time.

In the case of `O=C(O)/C=C/c1c2ccc(=O)c(O)c-2oc2c(O)c(O)ccc12`, the TGI is 54.9 µM in test [1]; more than 100 µM in test [2]; more than 100 µM in test [3]; 34.5 µM in test [4]; more than 100 µM in [5]; more than 100 µM in test [6]. The TGI in [7], in [8] and in [9] was more than 100 µM throughout.

Regarding `Cc1c(C)c2cc3c(=O)c(CCl)coc3c(C)c2oc1=O`, the TGI in test [1], in [10], in test [5], in test [6], in test [7] and in [8] was more than 100 µM each time. For the same molecule, the TGI in test [9] was more than 100 µM.

Take `COCN1COCN(C)C1=O`: the TGI in test [1], in [2], in test [10], in test [3], in test [5] and in test [6] was more than 100 µM each time. Moreover, the TGI in [7], in test [8] and in [9] was more than 100 µM throughout.

In the case of `CCOC(=O)c1ccc(N=Cc2ccc(N(CCC#N)S(=O)(=O)c3ccccc3)cc2C)cc1`, the TGI in test [1], in test [2], in test [10], in test [5], in test [6] and in [7] was more than 100 µM each time. Moreover, the TGI in test [8] and in [9] was more than 100 µM in each case.

`O=c1[nH]c2nc3ccccc3c(=O)n2nc1Cc1ccccc1`: the TGI in [1], in test [2], in test [10], in test [5], in test [6] and in test [7] was more than 100 µM in each case. In test [8], this molecule displayed a TGI of more than 100 µM.

`CC(=O)/C=C1\CC(=O)N(C)c2ccccc2N1`: the TGI was more than 100 µM in [1]; more than 100 µM in test [2]; 64.3 µM in [10]; more than 100 µM in test [3]; more than 100 µM in test [5]; more than 100 µM in [6]. Further, the TGI in [7] is more than 100 µM; in test [8] it was 0.953 µM; in test [9], more than 100 µM.

Consider `CCCCC[C@@H]1CCCC2NC(CCCCCO[Si](c3ccccc3)(c3ccccc3)C(C)(C)C)CCC21` (some centres undefined), for which the TGI is 33.2 µM in [1]; 29 µM in test [2]; 28.1 µM in test [10]; 22.8 µM in test [3]; 30.7 µM in [5]; 38.2 µM in test [6]. For the same molecule, the TGI in test [7] was 36.8 µM; in test [8] it was 30 µM; in [9] it was 34.8 µM.

In the case of `COc1ccc2c(c1OC)C(=O)C2`, the TGI in [1], in [10], in test [6], in test [7], in test [8] and in [9] was more than 100 µM throughout.

In the case of `O=C(c1ccccc1)c1nc2c(Cl)ccc(Cl)c2cc1C(Br)Br`, the TGI was determined as 0.983 µM in test [1]; 3.51 µM in test [2]; 6.19 µM in test [10]; 3.15 µM in test [5]; 2.96 µM in [6]; 2.07 µM in test [8]. Also, in test [9], the TGI came out at 2.81 µM.
